Measurements: US20150105252A1, “SUBSTITUTED PYRAZOLES AS HERBICIDES” (E I DU PONT DE NEMOURS AND COMPANY, priority 2013, published 2015)
“And” between values parts separate entries of the source, which are not always exact repeats. Identical values can stand only once.

Experiments:
Russian thistle = assay: Test C preemergence; format: in vivo, Salsola kali
Description: Seeds of plant species selected from blackgrass (Alopecurus myosuroides), ryegrass, Italian (Italian ryegrass, Lolium multiflorum), wheat (winter wheat, Triticum aestivum), galium (catchweed bedstraw, Galium aparine), corn (Zea mays), crabgrass, large (large crabgrass, Digitaria sanguinalis), foxtail, giant (giant foxtail, Setaria faberii), johnsongrass (Sorghum halepense), lambsquarters (Chenopodium album), morningglory (Ipomoea coccinea), nutsedge, yellow (yellow nutsedge, Cyperus esculentus), pigweed (redroot pigweed, Amaranthus retroflexus), ragweed (common ragweed, Ambrosia elation), soybean (Glycine max), barnyardgrass (Echinochloa crus-galli), oilseed rape (Brassica napus), waterhemp (common waterhemp, Amaranthus rudis), oat, wild (wild oat, Avena fatua), kochia (Kochia scoparia), Surinam grass (Brachiaria decumbens), foxtail, green (green foxtail, Setaria viridis), goosegrass (Eleusine indica), bromegrass, downy (downy bromegrass, Bromus tectorum), nightshade (eastern black nightshade, Solanum ptycanthum), cocklebur (common cocklebur, Xanthium strumarium), cupgrass, woolly (woolly cupgrass, Eriochloa villosa), bermudagrass (Cynodon dactylon), sunflower, (common oilseed sunflower, Helianthus annuus), Russian thistle (Salsola kali), and velvetleaf (Abutilon theophrasti) were planted into a blend of loam soil and sand and treated preemergence with test chemicals formulated in a non-phytotoxic solvent mixture which included a surfactant.
At the same time, plants selected from these crop and weed species and also chickweed (common chickweed, Stellaria media), canarygrass (littleseed canarygrass, Phalaris minor), and deadnettle (henbit deadnettle, Lamium amplexicaule), were planted in pots containing Redi-Earth® planting medium (Scotts Company, 14111 Scottslawn Road, Marysville, Ohio 43041) comprising spaghnum peat moss, vermiculite, wetting agent and starter nutrients and treated with postemergence applications of test chemicals formulated in the same manner. Plants ranged in height from 2 to 18 cm (1- to 4-leaf stage) for postemergence treatments. Treated plants and controls were maintained in a greenhouse for 13 to 15 days, after which time all species were compared to controls and visually evaluated. Plant response ratings, summarized in Table C, are based on a scale of 0 to 100 where 0 is no effect and 100 is complete control. A dash (-) response means no test result.

fall panicum [1] = assay: Test F preemergence; format: in vivo, Panicum dichotomiflorum
Description: (§1) Seeds of plant species selected from corn (Zea mays), soybean (Glycine max), velvetleaf (Abutilon theophrasti), lambsquarters (Chenopodium album), wild poinsettia (Euphorbia heterophylla), pigweed, palmer (palmer pigweed, Amaranthus palmeri), common waterhemp (Amaranthus rudis), surinam grass (Brachiaria decumbens), large crabgrass (Digitaria sanguinalis), crabgrass, Brazil (Brazilian crabgrass, Digitaria horizontalis), fall panicum (Panicum dichotomiflorum), giant foxtail (Setaria faberii), green foxtail (Setaria viridis), goosegrass (Eleusine indica), johnsongrass (Sorghum halepense), common ragweed (Ambrosia elation), barnyardgrass (Echinochloa crus-galli), southern sandbur (Cenchrus echinatus), arrowleaf sida (Sida rhombifolia), Italian ryegrass (Lolium multiflorum), dayflower, VA (Virginia (VA) dayflower, Commelina virginica), field bindweed (Convolvulus arvensis), cocklebur (common cocklebur, Xanthium strumarium), morningglory (Ipomoea coccinea), nightshade (eastern black nightshade, Solanum ptycanthum), kochia (Kochia scoparia), yellow nutsedge (Cyperus esculentus), and hairy beggarticks (Bidens pilosa), were planted into a silt loam soil and treated preemergence with test chemicals formulated in a non-phytotoxic solvent mixture which included a surfactant.
(§2) At the same time, plants from these crop and weed species and also horseweed (Canada horseweed, Conyza canadensis), smartweed (ladysthumb smartweed, Polygonum persicaria), waterhemp_RES1, (ALS & Triazine resistant common waterhemp, Amaranthus rudis), and waterhemp_RES2, (ALS & HPPD resistant common waterhemp, Amaranthus rudis) were treated with postemergence applications of test chemicals formulated in the same manner. Plants ranged in height from 2 to 18 cm for postemergence treatments (1- to 4-leaf stage). Treated plants and controls were maintained in a greenhouse for 14 to 21 days, after which time all species were compared to controls and visually evaluated. Plant response ratings, summarized in Table F, are based on a scale of 0 to 100 where 0 is no effect and 100 is complete control. A dash (-) response means no test result.

Italian ryegrass = assay: Test F postemergence; format: in vivo, Lolium multiflorum; details: scale 0 to 100
Description: as §1, §2

dayflower, VA = assay: Test F postemergence; format: in vivo, Commelina virginica; details: scale 0 to 100
Description: as §1, §2

soybean = assay: Test F postemergence; format: in vivo, Glycine max; details: scale 0 to 100
Description: as §1, §2

fall panicum [2] = assay: Test F postemergence; format: in vivo, Panicum dichotomiflorum; details: scale 0 to 100
Description: as §1, §2

common waterhemp = assay: Test F postemergence; format: in vivo, Amaranthus rudis; details: scale 0 to 100
Description: as §1, §2

[3] = system: waterhemp_RES2 (ALS & HPPD resistant common waterhemp); assay: Test F postemergence; format: in vivo, Amaranthus rudis; details: scale 0 to 100
Description: as §1, §2

pigweed, palmer = assay: Test F postemergence; format: in vivo, Amaranthus palmeri; details: scale 0 to 100
Description: as §1, §2

hairy beggarticks = assay: Test F postemergence; format: in vivo, Bidens pilosa; details: scale 0 to 100
Description: as §1, §2

wild poinsettia = assay: Test F postemergence; format: in vivo, Euphorbia heterophylla; details: scale 0 to 100
Description: as §1, §2

corn = assay: Test F postemergence; format: in vivo, Zea mays; details: scale 0 to 100
Description: as §1, §2

[4] = Preemergence, 62 g ai/ha, scale 0 to 100
[5] = Preemergence, 125 g ai/ha, scale 0 to 100
[6] = preemergence, 16 g ai/ha, scale 0 to 100, 100 is complete control

CCc1cc(C(=O)NOC(C)C)nn1Cc1cccc(OC(F)(F)F)c1 [Compound 70]
Plant response rating (scale of 0 to 100), Russian Thistle (Russian thistle; Preemergence, 250 g ai/ha): 80 | Russian Thistle plant response rating (Russian thistle; preemergence, 31 g ai/ha, scale 0 to 100 (0 no effect, 100 complete control), 13 to 15 days): 65 | Plant response rating, Russian Thistle (Russian thistle; preemergence, 62 g ai/ha, 13 to 15 days, scale 0 to 100, 0 = no effect, 100 = complete control): 75 | Russian Thistle plant response rating (Russian thistle; preemergence, 125 g ai/ha, scale 0 to 100, 0 is no effect, 100 is complete control): 75

CCc1cc(-c2ccc(C(F)(F)F)cc2)nn1Cc1ccnc(C(F)(F)F)c1 [Compound 110]
Plant response rating, Fall Panicum (fall panicum [1]; Preemergence, 31 g ai/ha, scale 0 to 100): 75 | Plant response rating, Fall Panicum (fall panicum [1]; [4]): 98 | Plant response rating, Fall Panicum (fall panicum [1]; [5]): 100 | Plant response rating, Fall Panicum (fall panicum [1]; preemergence, 8 g ai/ha, scale 0 to 100, 100 is complete control): 0 | Plant response rating, Fall Panicum (fall panicum [1]; [6]): 5 | Plant response rating, Italian Ryegrass (Italian ryegrass; Postemergence, 16 g ai/ha): 20 | Plant response rating, Italian Ryegrass (Italian ryegrass; Postemergence, 31 g ai/ha): 20 | Plant response rating, Italian Ryegrass (Italian ryegrass; Postemergence, 125 g ai/ha): 30 | Plant response rating, Italian Ryegrass (Italian ryegrass; postemergence, 8 g ai/ha): 10 | Plant response rating, Dayflower, VA (dayflower, VA; Postemergence, 16 g ai/ha): 50 | Plant response rating, Dayflower, VA (dayflower, VA; Postemergence, 31 g ai/ha): 40 | Plant response rating, Dayflower, VA (dayflower, VA; Postemergence, 125 g ai/ha): 60 | Plant response rating, Dayflower, VA (dayflower, VA; postemergence, 62 g ai/ha): 30 and 60 | Plant response rating, Dayflower, VA (dayflower, VA; postemergence, 8 g ai/ha): 25 | Plant response rating, Soybean (soybean; Postemergence, 16 g ai/ha): 30 | Plant response rating, Soybean (soybean; Postemergence, 31 g ai/ha): 30 | Plant response rating, Soybean (soybean; Postemergence, 125 g ai/ha): 30 | Plant response rating, Soybean (soybean; postemergence, 8 g ai/ha): 20 | Plant response rating, Fall Panicum (fall panicum [2]; Postemergence, 16 g ai/ha): 10 | Plant response rating, Fall Panicum (fall panicum [2]; Postemergence, 31 g ai/ha): 20 | Plant response rating, Fall Panicum (fall panicum [2]; Postemergence, 125 g ai/ha): 30 | Plant response rating, Fall Panicum (fall panicum [2]; postemergence, 62 g ai/ha): 20 | Plant response rating, Fall Panicum (fall panicum [2]; postemergence, 8 g ai/ha): 10 | Plant response rating, Common Waterhemp (common waterhemp; Postemergence, 16 g ai/ha): 95 | Plant response rating, Common Waterhemp (common waterhemp; Postemergence, 31 g ai/ha): 100 | Plant response rating, Common Waterhemp (common waterhemp; Postemergence, 125 g ai/ha): 100 | Plant response rating, Common Waterhemp (common waterhemp; postemergence, 62 g ai/ha): 60 and 90 | Plant response rating, Common Waterhemp (common waterhemp; postemergence, 8 g ai/ha): 90 | Plant response rating, Waterhemp_RES2 ([3]; Postemergence, 16 g ai/ha): 90 | Plant response rating, Waterhemp_RES2 ([3]; Postemergence, 31 g ai/ha): 98 | Plant response rating, Waterhemp_RES2 ([3]; Postemergence, 125 g ai/ha): 100 | Plant response rating, Waterhemp_RES2 ([3]; postemergence, 62 g ai/ha): 60 and 98 | Plant response rating, Waterhemp_RES2 ([3]; postemergence, 8 g ai/ha): 85 | Plant response rating, Pigweed, Palmer (pigweed, palmer; Postemergence, 16 g ai/ha): 85 | Plant response rating, Pigweed, Palmer (pigweed, palmer; Postemergence, 31 g ai/ha): 90 | Plant response rating, Pigweed, Palmer (pigweed, palmer; Postemergence, 125 g ai/ha): 85 | Plant response rating, Pigweed, Palmer (pigweed, palmer; postemergence, 62 g ai/ha): 50 and 85 | Plant response rating, Pigweed, Palmer (pigweed, palmer; postemergence, 8 g ai/ha): 60 | Plant response rating, Hairy Beggarticks (hairy beggarticks; Postemergence, 16 g ai/ha): 50 | Plant response rating, Hairy Beggarticks (hairy beggarticks; Postemergence, 31 g ai/ha): 60 | Plant response rating, Hairy Beggarticks (hairy beggarticks; Postemergence, 125 g ai/ha): 70 | Plant response rating, Hairy Beggarticks (hairy beggarticks; postemergence, 62 g ai/ha): 50 and 60 | Plant response rating, Hairy Beggarticks (hairy beggarticks; postemergence, 8 g ai/ha): 30 | Plant response rating, Wild Poinsettia (wild poinsettia; Postemergence, 16 g ai/ha): 70 | Plant response rating, Wild Poinsettia (wild poinsettia; Postemergence, 31 g ai/ha): 75 | Plant response rating, Wild Poinsettia (wild poinsettia; Postemergence, 125 g ai/ha): 95 | Plant response rating, Wild Poinsettia (wild poinsettia; postemergence, 62 g ai/ha): 60 and 80 | Plant response rating, Wild Poinsettia (wild poinsettia; postemergence, 8 g ai/ha): 70 | Plant response rating, Corn (corn; Postemergence, 16 g ai/ha): 10 | Plant response rating, Corn (corn; Postemergence, 31 g ai/ha): 10 | Plant response rating, Corn (corn; Postemergence, 125 g ai/ha): 20 | Plant response rating, Corn (corn; postemergence, 62 g ai/ha): 10 and 15 | Plant response rating, Corn (corn; postemergence, 8 g ai/ha): 10

CCCc1cc(C(=O)NC(C)C)nn1Cc1cc(C(F)(F)F)nn1C [Compound 201]
Plant response rating, Fall Panicum (fall panicum [1]; Preemergence, 16 g ai/ha, scale 0 to 100): 85 | Plant response rating, Fall Panicum (fall panicum [1]; [4]): 90 | Plant response rating, Fall Panicum (fall panicum [1]; [5]): 100 | Plant response rating, Fall Panicum (fall panicum [1]; Preemergence, 250 g ai/ha, scale 0 to 100): 100 | Plant response rating, Fall Panicum (fall panicum [1]; [6]): 0
